Assay results published in patent publication US11541132B2, “Radiolabeled compounds” (Hoffmann-La Roche Inc., priority 2017, dated 2023).
Where two headings read alike, the source gives them in different places. Blank lines part the entries; values can stand above or below the compound they belong to.

Experiments:
[1] = biological target: T1, native aSyn aggregates in A30P transgenic mouse brain sections (Homo sapiens, UniProt P37840, A30P); test: aSyn in vitro displacement assay ([3H]Example-3 autoradiography); type: binding, mutant human aSyn gene); conditions: for inhibition at 3 µM: 3 μM compound, read-out: PCT_INHIB A30P @ 3 μM; for inhibition at 1 µM: read-out: PCT_INHIB A30P @ 1 μM (% displacement of [3H]Example-3)
T1 construct: from tissue; host or cells: brain sections (midbrain and pons as ROI) of A30P transgenic mice, line B6.D2-Tg(Thy1-SNCA*30P)31Pjk

[2] = biological target: T2, native Aβ aggregates in human AD brain tissue sections (Homo sapiens, UniProt P05067); test: Aβ in vitro displacement assay (selectivity counterscreen, [3H]Example 3 autoradiography); type: binding; conditions: for inhibition at 3 µM: 3 μM compound, read-out: sel. counterscreen PCT_INHIB AD @ 3 μM; for inhibition at 1 µM: read-out: sel. counterscreen PCT_INHIB AD @ 1 μM (% displacement of [3H]Example 3)
T2 construct: native Aβ aggregates in human AD brain tissue samples; from tissue; host or cells: human AD brain tissue sections

[3] = 3 nM [3H]Example-3, A30P transgenic mouse brain sections
[4] = 3 nM [3H]Example 3, human AD brain sections
[5] = 1 μM compound, 3 nM [3H]Example-3, A30P transgenic mouse brain sections
[6] = 1 μM compound, 3 nM [3H]Example 3, human AD brain sections

T2 sequence (P05067 672-713 limits assumed): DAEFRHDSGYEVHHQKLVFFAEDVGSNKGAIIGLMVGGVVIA

inhibition at 3 µM [1, 3]: 102%
inhibition at 3 µM [2, 4]: 97%
SMILES: C#Cc1ccc(N2CCN(c3ccc(NC(=O)c4ccc(OC)cc4)cc3)CC2)nc1 [Example 176, N-[4-[4-(5-Ethynyl-2-pyridyl)piperazin-1-yl]phenyl]-4-methoxy-benzamide]

inhibition at 1 µM [1, 5]: 84%
inhibition at 1 µM [2, 6]: 78%
SMILES: COc1ccc(C(=O)Nc2ccc(N3CCN(c4ccc(C#N)cn4)CC3)cc2)nc1 [Example 162, N-(4-(4-(5-Cyanopyridin-2-yl)piperazin-1-yl)phenyl)-5-methoxypicolinamide]

inhibition at 1 µM [1, 5]: 98%
inhibition at 1 µM [2, 6]: 94%
SMILES: COc1ccc(C(=O)Nc2ccc(N3CCN(c4ccc(C#N)c(F)c4)CC3)cc2)cc1 [Example 150, N-(4-(4-(4-Cyano-3-fluorophenyl)piperazin-1-yl)phenyl)-4-methoxybenzamide]

inhibition at 1 µM [1, 5]: 81%
inhibition at 1 µM [2, 6]: 87%
SMILES: O=C(Nc1ccc(N2CCN(c3nccs3)CC2)cc1)c1ccc(OCC(O)CF)cc1 (racemic) [Example 130, rac-4-(3-Fluoro-2-hydroxypropoxy)-N-(4-(4-(thiazol-2-yl)piperazin-1-yl)phenyl)benzamide]

inhibition at 1 µM [1, 5]: 82%
inhibition at 1 µM [2, 6]: 92%
SMILES: O=C(Nc1ccc(N2CCN(c3ccccn3)CC2)cc1)c1ccc(OCC(O)CF)cc1 (racemic) [Example 125, rac-4-(3-Fluoro-2-hydroxypropoxy)-N-(4-(4-(pyridin-2-yl)piperazin-1-yl)phenyl)benzamide]

inhibition at 1 µM [1, 5]: 91%
inhibition at 1 µM [2, 6]: 91%
SMILES: COc1ccc(C(=O)Nc2ccc(N3CCN(c4ncc(C#N)cn4)CC3)cc2)cc1 [Example 143, N-(4-(4-(5-Cyanopyrimidin-2-yl)piperazin-1-yl)phenyl)-4-methoxybenzamide]

inhibition at 1 µM [1, 5]: 83%
inhibition at 1 µM [2, 6]: 82%
SMILES: COc1ccc(C(=O)Nc2ccc(N3CCN(c4ccc(C#N)nc4)CC3)cc2)nc1 [Example 173, N-(4-(4-(6-Cyanopyridin-3-yl)piperazin-1-yl)phenyl)-5-methoxypicolinamide]

inhibition at 3 µM [1, 3]: 97%
inhibition at 3 µM [2, 4]: 93%
SMILES: C#CCOCCOc1ccc(C(=O)Nc2ccc(N3CCN(c4ccccn4)CC3)cc2)cc1 [Example 178, 4-(2-Prop-2-ynoxyethoxy)-N-[4-[4-(2-pyridyl)piperazin-1-yl]phenyl]benzamide]

inhibition at 1 µM [1, 5]: 100%
inhibition at 1 µM [2, 6]: 98%
SMILES: COc1ccc(C(=O)Nc2ccc(N3CCN(c4ccc(F)cc4)CC3)cc2)cc1 [Example 105, N-[4-[4-(4-Fluorophenyl)piperazin-1-yl]phenyl]-4-methoxy-benzamide]

inhibition at 1 µM [1, 5]: 85%
inhibition at 1 µM [2, 6]: 97%
SMILES: COc1ccc(C(=O)Nc2ccc(N3CCN(c4ccnc(OC)c4)CC3)cc2)cc1 [Example 155, 4-Methoxy-N-(4-(4-(2-methoxypyridin-4-yl)piperazin-1-yl)phenyl)benzamide]

inhibition at 1 µM [1, 5]: 96%
inhibition at 1 µM [2, 6]: 94%
SMILES: COc1ccc(C(=O)Nc2ccc(N3CCN(c4ccc(F)cn4)CC3)cc2)cc1 [Example 141, N-(4-(4-(5-Fluoropyridin-2-yl)piperazin-1-yl)phenyl)-4-methoxybenzamide]

inhibition at 1 µM [1, 5]: 87%
inhibition at 1 µM [2, 6]: 90%
SMILES: COc1ccc(C(=O)Nc2ccc(N3CCN(c4ccc(C#N)cn4)CC3)cc2)c(F)c1 [Example 115, N-[4-[4-(5-Cyano-2-pyridyl)piperazin-1-yl]phenyl]-2-fluoro-4-methoxy-benzamide]

Second part, the compound before the results:

SMILES: CN1CCOc2cc(C(=O)Nc3ccc(N4CCN(c5ccccn5)CC4)cc3)ccc21 [Example 42, 4-Methyl-N-(4-(4-(pyridin-2-yl)piperazin-1-yl)phenyl)-3,4-dihydro-2H-benzo[b][1,4]oxazine-7-carboxamide]
inhibition at 1 µM [1, 5]: 91%
inhibition at 1 µM [2, 6]: 94%

SMILES: COc1ccc(C(=O)Nc2ccc(N3CCN(c4ccccn4)CC3)cc2)cc1 [Example 3, 4-Methoxy-N-[4-(4-pyridin-2-ylpiperazin-1-yl)phenyl]benzamide]
inhibition at 3 µM [1, 3]: 100%
inhibition at 3 µM [2, 4]: 100%

SMILES: COc1ccc(C(=O)Nc2ccc(N3CCN(c4cccnc4)CC3)cc2)nc1 [Example 77, 5-Methoxy-N-(4-(4-(pyridin-3-yl)piperazin-1-yl)phenyl)picolinamide]
inhibition at 1 µM [1, 5]: 98%
inhibition at 1 µM [2, 6]: 96%

SMILES: Cc1ccc(C(=O)Nc2ccc(N3CCN(c4ccccn4)CC3)cc2)cc1 [Example 5, 4-Methyl-N-(4-(4-(pyridin-2-yl)piperazin-1-yl)phenyl)benzamide]
inhibition at 1 µM [1, 5]: 99%
inhibition at 1 µM [2, 6]: 102%

SMILES: COc1ccc(C(=O)Nc2ccc(N3CCN(c4ccccc4F)CC3)cc2)cc1 [Example 71, N-{4-[4-(2-Fluorophenyl)piperazin-1-yl]phenyl}-4-methoxybenzamide]
inhibition at 1 µM [1, 5]: 101%
inhibition at 1 µM [2, 6]: 100%

SMILES: COc1ccc(C(=O)Nc2ccc(N3CCN(c4cc(C#N)ccn4)CC3)cc2)cc1 [Example 65, N-[4-[4-(4-Cyano-2-pyridyl)piperazin-1-yl]phenyl]-4-methoxy-benzamide]
inhibition at 1 µM [1, 5]: 100%
inhibition at 1 µM [2, 6]: 99%

SMILES: CN(C)c1ccc(C(=O)Nc2ccc(N3CCN(c4ccccn4)CC3)nc2)cc1 [Example 31, 4-(Dimethylamino)-N-[6-[4-(2-pyridyl)piperazin-1-yl]-3-pyridyl]benzamide]
inhibition at 1 µM [1, 5]: 90%
inhibition at 1 µM [2, 6]: 98%

SMILES: COc1ccc(C(=O)Nc2ccc(N3CCN(c4ccncc4C)CC3)cc2)cc1 [Example 83, Acetic acid; 4-Methoxy-N-[4-[4-(3-methyl-4-pyridyl)piperazin-1-yl]phenyl]benzamide]
inhibition at 1 µM [1, 5]: 86%
inhibition at 1 µM [2, 6]: 95%

SMILES: O=C(Nc1ccc(N2CCN(c3ccccn3)CC2)cc1)c1ccccc1F [Example 9, 2-Fluoro-N-(4-(4-(pyridin-2-yl)piperazin-1-yl)phenyl)benzamide]
inhibition at 1 µM [1, 5]: 82%
inhibition at 1 µM [2, 6]: 96%

SMILES: COc1ccc(C(=O)Nc2ccc(N3CCN(c4ccccc4OC)CC3)cc2)cc1 [Example 69, 4-Methoxy-N-{4-[4-(2-methoxyphenyl)piperazin-1-yl]phenyl}benzamide]
inhibition at 1 µM [1, 5]: 89%
inhibition at 1 µM [2, 6]: 86%

SMILES: COc1ccc(C(=O)Nc2ccc(N3CCN(c4ccccn4)CC3)nc2)cc1 [Example 24, 4-Methoxy-N-[6-[4-(2-pyridyl)piperazin-1-yl]-3-pyridyl]benzamide]
inhibition at 1 µM [1, 5]: 94%

SMILES: N#Cc1ccc(N2CCN(c3ncc(NC(=O)c4ccc(N5CCOCC5)cc4)cn3)CC2)nc1 [Example 99, N-(2-(4-(5-Cyanopyridin-2-yl)piperazin-1-yl)pyrimidin-5-yl)-4-morpholinobenzamide]
inhibition at 1 µM [1, 5]: 82%
inhibition at 1 µM [2, 6]: 86%

SMILES: Cc1ccc(C(=O)Nc2ccc(N3CCN(c4ccccn4)CC3)nc2)nc1 [Example 33, 5-Methyl-N-[6-[4-(2-pyridyl)piperazin-1-yl]-3-pyridyl]pyridine-2-carboxamide]
inhibition at 1 µM [1, 5]: 85%
inhibition at 1 µM [2, 6]: 90%

SMILES: COc1ccc(C(=O)Nc2cnc(N3CCN(c4ccccn4)CC3)nc2)c(F)c1 [Example 60, 2-Fluoro-4-methoxy-N-(2-(4-(pyridin-2-yl)piperazin-1-yl)pyrimidin-5-yl)benzamide]
inhibition at 1 µM [1, 5]: 85%
inhibition at 1 µM [2, 6]: 96%

SMILES: CC(C)(C)[Si](C)(C)OC(CF)COc1ccc(C(=O)Nc2ccc(N3CCN(c4ccccn4)CC3)cc2)cc1 (racemic) [Example 124, rac-4-(2-((tert-Butyldimethylsilyl)oxy)-3-fluoropropoxy)-N-(4-(4-(pyridin-2-yl)piperazin-1-yl)phenyl)benzamide]
inhibition at 1 µM [1]: 82%
inhibition at 1 µM [2]: 91%

SMILES: COc1ccc(C(=O)Nc2ccc(N3CCN(c4cccc(OC)n4)CC3)cc2)cc1 [Example 68, 4-Methoxy-N-{4-[4-(6-methoxypyridin-2-yl)piperazin-1-yl]phenyl}benzamide]
inhibition at 1 µM [1, 5]: 96%
inhibition at 1 µM [2, 6]: 90%

SMILES: CN1CCN(c2ccc(C(=O)Nc3ccc(N4CCN(c5nccs5)CC4)cc3)cc2)CC1 [Example 28, 4-(4-Methylpiperazin-1-yl)-N-[4-[4-(1,3-thiazol-2-yl)piperazin-1-yl]phenyl]benzamide]
inhibition at 1 µM [1, 5]: 82%

SMILES: Cc1ccc(C(=O)Nc2ccc(N3CCN(c4ccccn4)CC3)nc2)c(F)c1 [Example 23, 2-Fluoro-4-methyl-N-[6-[4-(2-pyridyl)piperazin-1-yl]-3-pyridyl]benzamide]
inhibition at 1 µM [1, 5]: 82%

SMILES: COc1ccc(C(=O)Nc2ccc(N3CCN(c4ccccn4)CC3)nc2)c(C)c1 [Example 19, 4-Methoxy-2-methyl-N-[6-[4-(2-pyridyl)piperazin-1-yl]-3-pyridyl]benzamide]
inhibition at 1 µM [1, 5]: 81%

SMILES: Cc1ccc(C(=O)Nc2ccc(N3CCN(c4nccs4)CC3)cc2)nc1 [Example 25, 5-Methyl-N-[4-[4-(1,3-thiazol-2-yl)piperazin-1-yl]phenyl]pyridine-2-carboxamide]
inhibition at 1 µM [1, 5]: 83%

SMILES: Cc1ccc(C(=O)Nc2ccc(N3CCN(c4nccs4)CC3)cc2)cc1 [Example 27, 4-Methyl-N-[4-[4-(1,3-thiazol-2-yl)piperazin-1-yl]phenyl]benzamide]
inhibition at 1 µM [1, 5]: 89%

SMILES: CN1CCN(c2ccc(C(=O)Nc3ccc(N4CCN(c5ccccn5)CC4)nc3)cc2)CC1 [Example 22, 4-(4-Methylpiperazin-1-yl)-N-[6-[4-(2-pyridyl)piperazin-1-yl]-3-pyridyl]benzamide]
inhibition at 1 µM [1, 5]: 84%

SMILES: O=C(Nc1ccc(N2CCN(c3nccs3)CC2)cc1)c1ccc(N2CCOCC2)cc1 [Example 26, 4-Morpholin-4-yl-N-[4-[4-(1,3-thiazol-2-yl)piperazin-1-yl]phenyl]benzamide]
inhibition at 1 µM [1, 5]: 93%
